Like-named read-outs stand apart in the source and are kept apart here.
What was measured:
[1] = system: HIV-1 laboratory strain, NL4-3; test: MT-4 cytoprotection assay; assay type: cell-based; settings: Human immunodeficiency virus 1, NL43, MT4, 96 h; MT-4 cells, four days incubation, WST-1 readout; read-out: MT4 EC50
Method: The HTLV-1 transformed T cell line, MT-4, is highly susceptible to HIV-1 infection. Anti-HIV-1 agents were evaluated in this target cell line by protection from the HIV-induced cytopathic effect. In this assay, viability of both HIV-1 and mock-infected cells was assessed in a […] assay that monitors the ability of metabolically-active cells to reduce the tetrazolium salt WST-1. Cytoprotection by antiviral compounds is indicated by the positive readout of increased WST-1 cleavage.
Briefly, exponentially growing MT-4 cells were mock-infected or batch-infected with the HIV-1 laboratory strain, NL4-3, at a multiplicity of infection of 0.0005. Following a two hour infection, the cells were washed to remove unbound virus and plated in the presence of increasing concentrations of compound. After four days incubation, cytoprotection in the infected cells and compound toxicity in mock-infected cells were analyzed using the WST-1 assay.

HIV-1NL4-3 = test: P4-MAGI assay; assay type: cell-based
From the text: P4 cells were used to test the effects of compounds on virus fusion activity. P4 cells are HIV-1 infectable CD4^+ HeLa cells that bear the bacterial lacZ gene under the control of a minimal HIV-1 LTR. Charneau, et. al., J. Mol. Biol. 241:651-662 (1994). When these cells are infected with HIV-1, β-galactosidase is expressed due to Tat activation of the viral LTR. In this assay, P4 cells were infected with the laboratory adapted strain HIV-1NL4-3 at a multiplicity of infection of 1 in the presence of DEAE-Dextran. Immediately after addition of virus to the cells, increasing concentrations of compound were added to the cells. […] The effect on cell viability (TC50, concentration of compound that inhibits growth by 50%) was determined in mock-infected cells with the WST-1 Cell Proliferation Reagent (Roche Diagnostics).

[2] = Human immunodeficiency virus 1, 24 h, P4 cells, 24 hour incubation, β-galactosidase expression, read-out: P4-MAGI IC50

| Structure (SMILES) | IC50 (HIV-1NL4-3; [2]) | further results |
| --- | --- | --- |
| C=C(C)[C@@H]1CC[C@]2(C(=O)NCc3ccc(C(=O)NCCNC(C)=O)cc3)CC[C@]3(C)C(CCC4[C@@]5(C)CC[C@H](O)C(C)(C)C5CC[C@]43C)C12 (stereo partly shown) [Example 52] |  | EC50 [1]: 10 µM |
| C=C(C)[C@@H]1CC[C@]2(C(=O)NCc3cccc(C(=O)NCCC(=O)O)c3)CC[C@]3(C)C(CCC4[C@@]5(C)CC[C@H](O)C(C)(C)C5CC[C@]43C)C12 (stereo partly shown) [Example 3] |  | EC50 [1]: 10 µM |
| C=C(C)[C@@H]1CC[C@]2(C(=O)NCc3ccc(C(=O)NCCCCC(=O)O)cc3)CC[C@]3(C)C(CCC4[C@@]5(C)CC[C@H](O)C(C)(C)C5CC[C@]43C)C12 (stereo partly shown) [Example 50] |  | EC50 [1]: 10 µM |
| C=C(C)[C@@H]1CC[C@]2(C(=O)NCc3cccc(C(=O)NCc4cccc(C(=O)O)n4)n3)CC[C@]3(C)C(CCC4[C@@]5(C)CC[C@H](O)C(C)(C)C5CC[C@]43C)C12 (stereo partly shown) [Example 91] | 3.9 µM |  |
| C=C(C)[C@@H]1CC[C@]2(C(=O)NCc3cccc(C(=O)NCc4ccc(OCC(=O)O)c(C(=O)O)c4)c3)CC[C@]3(C)C(CCC4[C@@]5(C)CC[C@H](O)C(C)(C)C5CC[C@]43C)C12 (stereo partly shown) [Example 120] | 0.62 µM |  |
| C=C(C)[C@@H]1CC[C@]2(C(=O)NCCc3cccc(C(=O)NCc4ccc(OCCCN5CC(C)NC(C)C5)cc4)c3)CC[C@]3(C)C(CCC4[C@@]5(C)CC[C@H](O)C(C)(C)C5CC[C@]43C)C12 (stereo partly shown) [Example 233] | 0.07 µM |  |
| C=C(C)[C@@H]1CC[C@]2(C(=O)NCc3cccc(C(=O)NCCc4cccc(C(=O)O)c4)c3)CC[C@]3(C)C(CCC4[C@@]5(C)CC[C@H](O)C(C)(C)C5CC[C@]43C)C12 (stereo partly shown) [Example 16] |  | EC50 [1]: 0.21 µM |
| CC(O)(CO)[C@@H]1CC[C@]2(C(=O)NCc3cccc(C(=O)NCCCCC(=O)O)c3)CC[C@]3(C)C(CCC4[C@@]5(C)CC[C@H](O)C(C)(C)C5CC[C@]43C)C12 (single isomer, unassigned) [Example 139] | 1.5 µM |  |
| C=C(C)[C@@H]1CC[C@]2(C(=O)NCc3cccc(-c4cccc(C(=O)N[C@@H](CC(C)C)[C@@H](O)CC(=O)O)c4)c3)CC[C@]3(C)C(CCC4[C@@]5(C)CC[C@H](O)C(C)(C)C5CC[C@]43C)C12 (stereo partly shown) [Example 129] | 3.6 µM |  |
| C=C(C)[C@@H]1CC[C@]2(C(=O)NCc3cccc(C(=O)NCc4ccc(OCCCN(C)CCN(C)C)c(C(=O)OC)c4)c3)CC[C@]3(C)C(CCC4[C@@]5(C)CC[C@H](O)C(C)(C)C5CC[C@]43C)C12 (stereo partly shown) [Example 122] | 0.265 µM |  |
| C=C(C)[C@@H]1CC[C@]2(C(=O)NCc3cccc(CNC(=O)c4cc(C(=O)O)ccc4C(=O)O)c3)CC[C@]3(C)C(CCC4[C@@]5(C)CC[C@H](O)C(C)(C)C5CC[C@]43C)C12 (stereo partly shown) [Example 79] | 0.412 µM |  |
| C=C(C)[C@@H]1CC[C@]2(C(=O)NCc3ccc(F)c(C(=O)NCCc4ccc(C(=O)OC)cc4)c3)CC[C@]3(C)C(CCC4[C@@]5(C)CC[C@H](O)C(C)(C)C5CC[C@]43C)C12 (stereo partly shown) [Example 104] | 0.35 µM |  |
| C=C(C)[C@@H]1CC[C@]2(C(=O)NCCc3cc(C(=O)NCc4ccc(C(=O)OC)cn4)ccc3F)CC[C@]3(C)C(CCC4[C@@]5(C)CC[C@H](O)C(C)(C)C5CC[C@]43C)C12 (stereo partly shown) [Example 260] | 0.15 µM |  |
| C=C(C)[C@@H]1CC[C@]2(C(=O)NCCc3cc(C(=O)NCc4ccc(C(=O)O)cn4)ccc3F)CC[C@]3(C)C(CCC4[C@@]5(C)CC[C@H](O)C(C)(C)C5CC[C@]43C)C12 (stereo partly shown) [Example 263] | 0.198 µM |  |
| C=C(C)[C@@H]1CC[C@]2(C(=O)NCCc3cccc(C(=O)NC4CCC(C(=O)OC)CC4)c3)CC[C@]3(C)C(CCC4[C@@]5(C)CC[C@H](O)C(C)(C)C5CC[C@]43C)C12 (stereo partly shown) [Example 207] | 0.193 µM |  |
| C=C(C)[C@@H]1CC[C@]2(C(=O)NCCc3ccccc3C(=O)NCCCCC(=O)O)CC[C@]3(C)C(CCC4[C@@]5(C)CC[C@H](O)C(C)(C)C5CC[C@]43C)C12 (stereo partly shown) [Example 54] | 3.4 µM |  |
| C=C(C)[C@@H]1CC[C@]2(C(=O)NCc3ccc(F)c(C(=O)NCCc4cccc(C(=O)OC)c4)c3)CC[C@]3(C)C(CCC4[C@@]5(C)CC[C@H](O)C(C)(C)C5CC[C@]43C)C12 (stereo partly shown) [Example 106] | 1.3 µM |  |
| C=C(C)[C@@H]1CC[C@]2(C(=O)NCc3cccc(-c4noc(Cc5ccc(-c6nnn[nH]6)cc5)n4)c3)CC[C@]3(C)C(CCC4[C@@]5(C)CC[C@H](O)C(C)(C)C5CC[C@]43C)C12 (stereo partly shown) [Example 277] | 10 µM |  |

| Structure (SMILES) | IC50 (HIV-1NL4-3; [2]) | further results |
| --- | --- | --- |
| C=C(C)[C@@H]1CC[C@]2(C(=O)NCc3ccc(C(=O)NCCC(=O)O)cc3)CC[C@]3(C)C(CCC4[C@@]5(C)CC[C@H](O)C(C)(C)C5CC[C@]43C)C12 (stereo partly shown) [Example 49] |  | EC50 [1]: 10 µM |
| C=C(C)[C@@H]1CC[C@]2(C(=O)NCc3ccc(C(=O)OC)o3)CC[C@]3(C)C(CCC4[C@@]5(C)CC[C@H](O)C(C)(C)C5CC[C@]43C)C12 (stereo partly shown) [Example 87] | 1.4 µM |  |
| C=C(C)[C@@H]1CC[C@]2(C(=O)NCCc3cccc(C(=O)NCC(=O)O)c3)CC[C@]3(C)C(CCC4[C@@]5(C)CC[C@H](O)C(C)(C)C5CC[C@]43C)C12 (stereo partly shown) [Example 64] | 0.22 µM |  |
| C=C(C)[C@@H]1CC[C@]2(C(=O)NCc3cccc(-c4cccc(C(=O)NCC(=O)OCC)c4)c3)CC[C@]3(C)C(CCC4[C@@]5(C)CC[C@H](O)C(C)(C)C5CC[C@]43C)C12 (stereo partly shown) [Example 131] | 6.5 µM |  |
| C=C(C)[C@@H]1CC[C@]2(C(=O)NCc3cc(C(=O)NCCc4ccc(S(N)(=O)=O)cc4)ccc3F)CC[C@]3(C)C(CCC4[C@@]5(C)CC[C@H](O)C(C)(C)C5CC[C@]43C)C12 (stereo partly shown) [Example 259] | 0.175 µM |  |
| C=C(C)[C@@H]1CC[C@]2(C(=O)NCCc3ccc(OCCCCC(=O)O)cc3)CC[C@]3(C)C(CCC4[C@@]5(C)CC[C@H](O)C(C)(C)C5CC[C@]43C)C12 (stereo partly shown) [Example 112] | 0.317 µM |  |
| C=C(C)[C@@H]1CC[C@]2(C(=O)NCc3cccc(C(=O)NCc4cc(C(=O)O)ccn4)c3)CC[C@]3(C)C(CCC4[C@@]5(C)CC[C@H](O)C(C)(C)C5CC[C@]43C)C12 (stereo partly shown) [Example 31] | 0.573 µM |  |
| C=C(C)[C@@H]1CC[C@]2(CC(=O)NCc3cccc(C(=O)NCc4cccc(C(=O)O)c4)c3)CC[C@]3(C)C(CCC4[C@@]5(C)CC[C@H](O)C(C)(C)C5CC[C@]43C)C12 (stereo partly shown) [Example 142] | 3.4 µM |  |
| C=C(C)[C@@H]1CC[C@]2(C(=O)NCc3cccc(N4CCN(Cc5cccc(C(=O)O)c5)CC4)c3)CC[C@]3(C)C(CCC4[C@@]5(C)CC[C@H](O)C(C)(C)C5CC[C@]43C)C12 (stereo partly shown) [Example 118] | 0.458 µM |  |
| C=C(C)[C@@H]1CC[C@]2(C(=O)NCCc3cccc(C(=O)NC(Cc4ccc(O)cc4)C(=O)OC)c3)CC[C@]3(C)C(CCC4[C@@]5(C)CC[C@H](O)C(C)(C)C5CC[C@]43C)C12 (stereo partly shown) [Example 144] | 0.204 µM |  |
| C=C(C)[C@@H]1CC[C@]2(C(=O)NCCc3cccc(S(=O)(=O)NCc4cccc(C(=O)OC)c4)c3)CC[C@]3(C)C(CCC4[C@@]5(C)CC[C@H](O)C(C)(C)C5CC[C@]43C)C12 (stereo partly shown) [Example 248] | 0.208 µM |  |
| C=C(C)[C@@H]1CC[C@]2(C(=O)N[C@@H](Cc3ccc(OCCCCC(=O)O)cc3)C(=O)O)CC[C@]3(C)C(CCC4[C@@]5(C)CC[C@H](O)C(C)(C)C5CC[C@]43C)C12 (stereo partly shown) [Example 115] | 10 µM |  |
| C=C(C)[C@@H]1CC[C@]2(C(=O)NCc3cccc(CNC(=O)c4ccc(C(=O)O)c(C(=O)O)c4)c3)CC[C@]3(C)C(CCC4[C@@]5(C)CC[C@H](O)C(C)(C)C5CC[C@]43C)C12 (stereo partly shown) [Example 78] | 7 µM |  |
| C=C(C)[C@@H]1CC[C@]2(C(=O)NCc3ccc(C(=O)NCc4ccc(C(=O)O)o4)o3)CC[C@]3(C)C(CCC4[C@@]5(C)CC[C@H](O)C(C)(C)C5CC[C@]43C)C12 (stereo partly shown) [Example 90] | 6.5 µM |  |
| C=C(C)[C@@H]1CC[C@]2(C(=O)NCCc3cccc(C(=O)NCC4CCCN4)c3)CC[C@]3(C)C(CCC4[C@@]5(C)CC[C@H](O)C(C)(C)C5CC[C@]43C)C12 (stereo partly shown) [Example 204] | 1.94 µM |  |
| C=C(C)[C@@H]1CC[C@]2(C(=O)NCCc3ccccc3C(=O)NCCCCCCC(=O)O)CC[C@]3(C)C(CCC4[C@@]5(C)CC[C@H](O)C(C)(C)C5CC[C@]43C)C12 (stereo partly shown) [Example 55] | 4.7 µM |  |
| C=C(C)[C@@H]1CC[C@]2(C(=O)NCc3cccc(C(=O)NC4(Cc5ccc(C(=O)O)cc5)CC4)c3)CC[C@]3(C)C(CCC4[C@@]5(C)CC[C@H](O)C(C)(C)C5CC[C@]43C)C12 (stereo partly shown) [Example 28] | 1.2 µM |  |
| C=C(C)[C@@H]1CC[C@]2(C(=O)NCc3cccc(C(=O)NCCc4cc(OC)cc(OC)c4)c3)CC[C@]3(C)C(CCC4[C@@]5(C)CC[C@H](O)C(C)(C)C5CC[C@]43C)C12 (stereo partly shown) [Example 44] | 0.052 µM | IC50 (HIV-1NL4-3; Human immunodeficiency virus 1, text statement, less than about 100 nm, read-out: P4-MAGI assay IC50): < 0.1 µM |

From US20090275583A1, “ANTIVIRAL COMPOUNDS AND USE THEREOF” (Myriad Genetics, Incorporated, priority 2006, published 2009)
